Columns and labels:
Experiment in all cases: SelectScreen kinase profiling, SSBK ZLyte SP Technology
Type in all cases: biochemical
[1] = molecular target: kinase named in conditions (Homo sapiens, UniProt O00141); settings: SGK (SGK1), 10 μM
Experimental: (§1) Kinase selectivity screening was performed by Thermo Fisher Scientific (Paisley, U.K.) in their SelectScreen Biochemical Kinase Profiling Service. Assay information and data are presented in the Supporting Information.
(§2) Kinase selectivity screening was performed by ThermoFisher Scientific (Paisley, U.K.) in their SelectScreenTM
(§3) Biochemical Kinase Profiling service .

[2] = molecular target: kinase named in conditions (Homo sapiens, UniProt O14920); settings: IKBKB (IKK beta), 10 μM
Experimental: as §1, §2, §3

[3] = molecular target: kinase named in conditions (Homo sapiens, UniProt O15075); settings: DCAMKL1 (DCLK1), 10 μM
Experimental: as §1, §2, §3

[4] = molecular target: kinase named in conditions (Homo sapiens, UniProt O60674)
Experimental: as §1, §2, §3

[5] = molecular target: kinase named in conditions (Homo sapiens, UniProt O94806); settings: PRKCN (PKD3), 10 μM
Experimental: as §1, §2, §3

[6] = molecular target: kinase named in conditions (Homo sapiens, UniProt P00519); settings: ABL1, 10 μM
Experimental: as §1, §2, §3

[7] = molecular target: kinase named in conditions (Homo sapiens, UniProt P00533); settings: EGFR (ErbB1), 10 μM
Experimental: as §1, §2, §3

[8] = molecular target: kinase named in conditions (Homo sapiens, UniProt P07949); settings: RET, 10 μM
Experimental: as §1, §2, §3

[9] = molecular target: kinase named in conditions (Homo sapiens, UniProt P07949, A883F); settings: RET A883F, 10 μM
Experimental: as §1, §2, §3

[10] = molecular target: kinase named in conditions (Homo sapiens, UniProt P08922); settings: ROS1, 10 μM
Experimental: as §1, §2, §3

[11] = molecular target: kinase named in conditions (Homo sapiens, UniProt P10721); settings: KIT, 10 μM
Experimental: as §1, §2, §3

[12] = molecular target: kinase named in conditions (Homo sapiens, UniProt P10721, V560G); settings: KIT V560G, 10 μM
Experimental: as §1, §2, §3

[13] = molecular target: kinase named in conditions (Homo sapiens, UniProt P16234); settings: PDGFRA (PDGFR alpha), 10 μM
Experimental: as §1, §2, §3

[14] = molecular target: kinase named in conditions (Homo sapiens, UniProt P22607); settings: FGFR3, 10 μM
Experimental: as §1, §2, §3

[15] = molecular target: kinase named in conditions (Homo sapiens, UniProt P29317); settings: EPHA2, 10 μM
Experimental: as §1, §2, §3

[16] = molecular target: kinase named in conditions (Homo sapiens, UniProt P29376); settings: LTK (TYK1), 10 μM
Experimental: as §1, §2, §3

[17] = molecular target: kinase named in conditions (Homo sapiens, UniProt P30530); settings: AXL, 10 μM
Experimental: as §1, §2, §3

[18] = molecular target: kinase named in conditions (Homo sapiens, UniProt P35916); settings: FLT4 (VEGFR3), 10 μM
Experimental: as §1, §2, §3

[19] = molecular target: kinase named in conditions (Homo sapiens, UniProt P42685); settings: FRK (PTK5), 10 μM
Experimental: as §1, §2, §3

[20] = molecular target: kinase named in conditions (Homo sapiens, UniProt P45984); settings: MAPK9 (JNK2), 10 μM
Experimental: as §1, §2, §3

[21] = molecular target: kinase named in conditions (Homo sapiens, UniProt P51812); settings: RPS6KA3 (RSK2), 10 μM
Experimental: as §1, §2, §3

[22] = molecular target: kinase named in conditions (Homo sapiens, UniProt P54760); settings: EPHB4, 10 μM
Experimental: as §1, §2, §3

[23] = molecular target: kinase named in conditions (Homo sapiens, UniProt Q05655); settings: PRKCD (PKC delta), 10 μM
Experimental: as §1, §2, §3

[24] = molecular target: kinase named in conditions (Homo sapiens, UniProt Q06187); settings: BTK, 10 μM
Experimental: as §1, §2, §3

[25] = molecular target: kinase named in conditions (Homo sapiens, UniProt Q12851); settings: MAP4K2 (GCK), 10 μM
Experimental: as §1, §2, §3

[26] = molecular target: kinase named in conditions (Homo sapiens, UniProt Q13177); settings: PAK2 (PAK65), 10 μM
Experimental: as §1, §2, §3

[27] = molecular target: kinase named in conditions (Homo sapiens, UniProt Q13470); settings: TNK1, 10 μM
Experimental: as §1, §2, §3

[28] = molecular target: kinase named in conditions (Homo sapiens, UniProt Q15349); settings: RPS6KA2 (RSK3), 10 μM
Experimental: as §1, §2, §3

[29] = molecular target: kinase named in conditions (Homo sapiens, UniProt Q96BR1); settings: SGKL (SGK3), 10 μM
Experimental: as §1, §2, §3

[30] = molecular target: kinase named in conditions (Homo sapiens, UniProt Q96NX5); settings: CAMK1G (CAMKI gamma), 10 μM
Experimental: as §1, §2, §3

[31] = molecular target: kinase named in conditions (Homo sapiens, UniProt Q9H3Y6); settings: SRMS (Srm), 10 μM
Experimental: as §1, §2, §3

[32] = molecular target: kinase named in conditions (Homo sapiens, UniProt Q9H4B4); settings: PLK3, 10 μM
Experimental: as §1, §2, §3

[33] = molecular target: kinase named in conditions (Homo sapiens, UniProt Q9P286); settings: PAK7 (KIAA1264), 10 μM
Experimental: as §1, §2, §3

[34] = molecular target: kinase named in conditions (Homo sapiens, UniProt Q9Y5S2); settings: CDC42 BPB (MRCKB), 10 μM
Experimental: as §1, §2, §3

Chain of kinase named in conditions (Homo sapiens, UniProt O60674) (O60674 whole entry): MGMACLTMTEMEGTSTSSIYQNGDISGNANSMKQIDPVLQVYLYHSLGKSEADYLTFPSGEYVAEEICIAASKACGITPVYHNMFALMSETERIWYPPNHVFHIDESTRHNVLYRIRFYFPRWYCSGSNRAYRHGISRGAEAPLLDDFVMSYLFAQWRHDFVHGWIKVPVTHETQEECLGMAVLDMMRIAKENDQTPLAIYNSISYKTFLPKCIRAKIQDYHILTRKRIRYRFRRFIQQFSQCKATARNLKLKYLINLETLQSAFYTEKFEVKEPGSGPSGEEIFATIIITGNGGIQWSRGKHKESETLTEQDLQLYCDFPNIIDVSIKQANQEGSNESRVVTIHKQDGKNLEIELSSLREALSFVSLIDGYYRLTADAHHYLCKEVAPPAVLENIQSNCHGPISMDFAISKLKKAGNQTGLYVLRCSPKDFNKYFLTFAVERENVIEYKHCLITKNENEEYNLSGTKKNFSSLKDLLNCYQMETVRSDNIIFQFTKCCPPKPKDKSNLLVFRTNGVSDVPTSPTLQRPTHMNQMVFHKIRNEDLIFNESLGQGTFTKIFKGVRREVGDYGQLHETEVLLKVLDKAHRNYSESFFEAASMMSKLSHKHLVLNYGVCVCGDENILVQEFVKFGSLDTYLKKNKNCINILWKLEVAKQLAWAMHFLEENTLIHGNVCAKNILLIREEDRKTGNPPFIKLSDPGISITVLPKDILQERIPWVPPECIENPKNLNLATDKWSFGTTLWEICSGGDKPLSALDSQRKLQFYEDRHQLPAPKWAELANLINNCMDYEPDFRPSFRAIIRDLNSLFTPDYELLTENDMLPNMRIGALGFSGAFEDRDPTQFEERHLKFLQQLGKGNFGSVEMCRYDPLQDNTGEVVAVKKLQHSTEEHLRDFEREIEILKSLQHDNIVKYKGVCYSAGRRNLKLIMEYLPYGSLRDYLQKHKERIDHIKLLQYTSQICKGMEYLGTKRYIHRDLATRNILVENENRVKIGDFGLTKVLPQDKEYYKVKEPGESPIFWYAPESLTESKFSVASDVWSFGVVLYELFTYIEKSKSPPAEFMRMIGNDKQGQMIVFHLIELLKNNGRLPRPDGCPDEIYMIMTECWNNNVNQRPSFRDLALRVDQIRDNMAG
Chain of kinase named in conditions (Homo sapiens, UniProt O14920) (O14920 whole entry): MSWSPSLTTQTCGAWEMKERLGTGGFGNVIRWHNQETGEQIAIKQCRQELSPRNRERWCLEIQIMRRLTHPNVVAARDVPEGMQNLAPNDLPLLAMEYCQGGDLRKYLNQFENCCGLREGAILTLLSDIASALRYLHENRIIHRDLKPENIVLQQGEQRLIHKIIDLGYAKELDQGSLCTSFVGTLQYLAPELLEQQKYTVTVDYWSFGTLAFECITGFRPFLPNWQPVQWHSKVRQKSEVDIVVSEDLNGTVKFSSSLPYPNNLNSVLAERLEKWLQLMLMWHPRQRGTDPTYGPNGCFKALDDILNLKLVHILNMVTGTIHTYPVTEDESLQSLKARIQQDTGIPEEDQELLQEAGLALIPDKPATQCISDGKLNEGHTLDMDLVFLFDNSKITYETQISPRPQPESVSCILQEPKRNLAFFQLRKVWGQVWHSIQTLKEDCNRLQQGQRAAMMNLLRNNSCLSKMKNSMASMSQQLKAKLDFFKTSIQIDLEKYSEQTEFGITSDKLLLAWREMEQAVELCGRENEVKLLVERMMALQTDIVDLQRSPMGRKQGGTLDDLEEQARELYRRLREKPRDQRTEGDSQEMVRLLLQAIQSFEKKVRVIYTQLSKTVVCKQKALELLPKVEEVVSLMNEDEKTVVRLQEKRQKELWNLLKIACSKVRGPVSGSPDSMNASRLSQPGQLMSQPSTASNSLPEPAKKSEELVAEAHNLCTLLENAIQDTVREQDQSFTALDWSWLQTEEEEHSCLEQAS
Chain of kinase named in conditions (Homo sapiens, UniProt Q9H4B4) (Q9H4B4 whole entry): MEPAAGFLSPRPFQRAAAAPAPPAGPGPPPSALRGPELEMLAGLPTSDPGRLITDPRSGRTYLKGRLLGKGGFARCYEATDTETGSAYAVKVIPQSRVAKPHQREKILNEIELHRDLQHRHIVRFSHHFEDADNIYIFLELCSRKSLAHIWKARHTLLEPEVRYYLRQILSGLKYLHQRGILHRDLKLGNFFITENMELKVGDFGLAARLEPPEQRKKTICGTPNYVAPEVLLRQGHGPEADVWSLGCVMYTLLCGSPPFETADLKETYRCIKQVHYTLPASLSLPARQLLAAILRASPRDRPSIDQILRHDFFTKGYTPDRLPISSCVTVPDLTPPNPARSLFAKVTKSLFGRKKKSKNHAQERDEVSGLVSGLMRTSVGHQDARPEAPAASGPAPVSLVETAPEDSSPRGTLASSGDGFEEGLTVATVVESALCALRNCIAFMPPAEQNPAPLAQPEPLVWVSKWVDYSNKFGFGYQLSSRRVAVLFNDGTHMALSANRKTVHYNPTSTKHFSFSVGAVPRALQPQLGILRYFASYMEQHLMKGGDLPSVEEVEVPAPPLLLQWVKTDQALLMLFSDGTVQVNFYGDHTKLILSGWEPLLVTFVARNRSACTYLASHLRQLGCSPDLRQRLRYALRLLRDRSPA
Chain of kinase named in conditions (Homo sapiens, UniProt P30530) (P30530 26-894): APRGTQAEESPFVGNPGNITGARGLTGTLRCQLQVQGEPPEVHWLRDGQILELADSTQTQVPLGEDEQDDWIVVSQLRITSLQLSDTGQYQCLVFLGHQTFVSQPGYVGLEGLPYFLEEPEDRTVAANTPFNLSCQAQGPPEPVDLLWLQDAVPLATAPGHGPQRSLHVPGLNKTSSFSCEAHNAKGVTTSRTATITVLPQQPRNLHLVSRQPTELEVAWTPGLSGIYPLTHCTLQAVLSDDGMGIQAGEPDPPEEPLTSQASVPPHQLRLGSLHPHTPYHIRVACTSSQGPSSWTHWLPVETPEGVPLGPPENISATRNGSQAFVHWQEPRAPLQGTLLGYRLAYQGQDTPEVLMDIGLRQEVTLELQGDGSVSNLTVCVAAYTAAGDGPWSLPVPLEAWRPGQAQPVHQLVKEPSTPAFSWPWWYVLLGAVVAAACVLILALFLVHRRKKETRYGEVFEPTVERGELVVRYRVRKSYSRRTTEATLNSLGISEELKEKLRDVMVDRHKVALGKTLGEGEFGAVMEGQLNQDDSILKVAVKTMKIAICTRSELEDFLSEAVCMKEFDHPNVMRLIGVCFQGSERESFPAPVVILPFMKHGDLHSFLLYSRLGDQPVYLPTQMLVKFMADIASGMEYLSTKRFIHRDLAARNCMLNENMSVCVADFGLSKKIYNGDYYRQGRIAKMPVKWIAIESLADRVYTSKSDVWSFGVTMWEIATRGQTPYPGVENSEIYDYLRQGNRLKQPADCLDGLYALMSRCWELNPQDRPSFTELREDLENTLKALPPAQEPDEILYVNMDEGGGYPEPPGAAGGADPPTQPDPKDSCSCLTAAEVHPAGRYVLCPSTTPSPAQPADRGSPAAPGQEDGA
Chain of kinase named in conditions (Homo sapiens, UniProt Q12851) (Q12851 whole entry): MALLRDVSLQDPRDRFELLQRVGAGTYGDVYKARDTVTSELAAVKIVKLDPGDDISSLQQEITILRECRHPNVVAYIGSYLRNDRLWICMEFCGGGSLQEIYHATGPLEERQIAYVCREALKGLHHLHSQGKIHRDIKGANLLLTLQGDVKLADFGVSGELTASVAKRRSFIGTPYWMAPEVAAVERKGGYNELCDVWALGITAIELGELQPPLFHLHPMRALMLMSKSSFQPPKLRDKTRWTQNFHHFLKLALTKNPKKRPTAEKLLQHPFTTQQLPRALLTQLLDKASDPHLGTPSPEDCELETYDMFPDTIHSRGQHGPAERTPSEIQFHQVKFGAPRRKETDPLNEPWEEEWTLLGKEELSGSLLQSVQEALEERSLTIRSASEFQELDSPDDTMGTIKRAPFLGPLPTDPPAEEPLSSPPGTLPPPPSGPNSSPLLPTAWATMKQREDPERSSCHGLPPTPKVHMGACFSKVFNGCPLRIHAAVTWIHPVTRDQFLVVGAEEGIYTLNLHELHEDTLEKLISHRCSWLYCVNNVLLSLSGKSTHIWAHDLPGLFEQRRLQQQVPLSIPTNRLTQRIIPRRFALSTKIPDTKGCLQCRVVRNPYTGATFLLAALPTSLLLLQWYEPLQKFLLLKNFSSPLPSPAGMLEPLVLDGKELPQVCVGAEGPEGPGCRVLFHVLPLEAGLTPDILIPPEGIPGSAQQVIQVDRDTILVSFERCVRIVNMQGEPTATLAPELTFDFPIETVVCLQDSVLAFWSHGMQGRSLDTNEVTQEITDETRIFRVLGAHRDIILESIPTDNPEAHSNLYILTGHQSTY
Chain of kinase named in conditions (Homo sapiens, UniProt P42685) (P42685 whole entry): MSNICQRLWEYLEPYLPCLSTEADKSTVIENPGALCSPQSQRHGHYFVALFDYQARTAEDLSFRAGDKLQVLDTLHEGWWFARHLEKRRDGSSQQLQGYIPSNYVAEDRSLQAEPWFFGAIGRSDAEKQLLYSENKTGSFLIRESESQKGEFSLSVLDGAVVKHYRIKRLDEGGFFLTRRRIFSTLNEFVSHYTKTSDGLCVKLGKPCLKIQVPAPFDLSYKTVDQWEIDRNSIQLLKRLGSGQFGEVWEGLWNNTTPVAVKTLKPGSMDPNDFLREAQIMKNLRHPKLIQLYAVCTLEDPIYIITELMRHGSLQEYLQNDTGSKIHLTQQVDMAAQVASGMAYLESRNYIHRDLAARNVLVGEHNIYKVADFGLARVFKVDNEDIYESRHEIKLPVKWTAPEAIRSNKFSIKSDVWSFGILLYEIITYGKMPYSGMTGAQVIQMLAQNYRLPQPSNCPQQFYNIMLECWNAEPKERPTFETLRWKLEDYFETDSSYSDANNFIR

**Q.** What does the source list for `FC(F)(F)c1c(Cl)ccc(-n2ccnn2)c1Cl` [8l, 1-(2,4-Dichloro-3-(trifluoromethyl)phenyl)-1H-1,2,3-triazole]?
**A.** inhibition at 10 µM [1]: 5%; inhibition at 10 µM [2]: -1%; inhibition at 10 µM [3]: 3%; inhibition at 10 µM ([4]; JAK2, 10 μM): 3%; inhibition at 10 µM ([4]; JAK2 JH1 JH2, 10 μM): -1%; inhibition at 10 µM [5]: 6%; inhibition at 10 µM [6]: 19%; inhibition at 10 µM [7]: 1%; inhibition at 10 µM [8]: 7%; inhibition at 10 µM [9]: 10%; inhibition at 10 µM [10]: 9%; inhibition at 10 µM [11]: -7%; inhibition at 10 µM [12]: 3%; inhibition at 10 µM [13]: 13%; inhibition at 10 µM [14]: 12%; inhibition at 10 µM [15]: 9%; inhibition at 10 µM [16]: 4%; inhibition at 10 µM [17]: 4%; inhibition at 10 µM [18]: 0%; inhibition at 10 µM [19]: 1%; inhibition at 10 µM [20]: -17%; inhibition at 10 µM [21]: -3%; inhibition at 10 µM [22]: 1%; inhibition at 10 µM [23]: -4%; inhibition at 10 µM [24]: 21%; inhibition at 10 µM [25]: -3%; inhibition at 10 µM [26]: 5%; inhibition at 10 µM [27]: -3%; inhibition at 10 µM [28]: 5%; inhibition at 10 µM [29]: 10%; inhibition at 10 µM [30]: 2%; inhibition at 10 µM [31]: 10%; inhibition at 10 µM [32]: 5%; inhibition at 10 µM [33]: 8%; inhibition at 10 µM [34]: -1%

Source: publication PMC9150124, “Design of a Potent, Selective, and Brain-Penetrant Inhibitor of Wnt-Deactivating Enzyme Notum by Optimization of a Crystallographic Fragment Hit” (Journal of Medicinal Chemistry, 2022)
